Molecular target: DNA gyrase A/A/B/B tetramer (Escherichia coli (strain K12), UniProt P0AES4+P0AES6)
Experiment: In vitro antibacterial activity was determined as inhibitory concentration causing 50% DNA-gyrase supercoiling inhibition (SCI)

`C[C@H]1COc2c(N3CCN(C)CC3)c(F)cc3c(=O)c(C(=O)O)cn1c23` [9-fluoro-3-methyl-10-(4-methylpiperazin-1-yl)-7-oxo-2,3-dihydro-7H-[1,4]oxazino[2,3,4-ij]quinoline-6-carboxylic acid] showed an IC50 of 4.98 µM.
